Measurements: ChEMBL document CHEMBL1201862, “PubChem BioAssay data set” (2004)
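The compound was tested at five concentrations on cells cultured in 96-well plates, with a 48-hour exposure period. At the GI50, growth is halved.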 Calls of active or inactive are those of the source. Rule as the data show it: active = GI50 up to about 1.1 µM and inactive = higher. Non-standard residues stand in square brackets, D forms with d. Residues, ends and D or L forms follow the SMILES beside them. *: point of attachment. NMeF = CN[CH](Cc1ccccc1)C(=O)O; NMeV = CN[CH](C(=O)O)C(C)C; Boc = CC(C)(C)OC(=O)*

What was measured:
Experiment in all cases: growth of human tumour cells (NCI), 48 h
[1] = system: NCI-H226
[2] = system: HOP-62
[3] = system: OVCAR-8
[4] = system: SW-620
[5] = system: CAKI-1
[6] = system: UACC-257
[7] = system: SR
[8] = system: CCRF-CEM
[9] = system: SF-268
[10] = system: MOLT-4
[11] = system: HL-60
[12] = system: A498
[13] = system: HOP-92
[14] = system: SK-OV-3
[15] = system: OVCAR-3

SMILES	GI50 [1]	GI50 [2]	GI50 [3]	GI50 [4]	GI50 [5]	GI50 [6]	GI50 [7]	GI50 [8]	GI50 [9]	GI50 [10]	GI50 [11]	GI50 [12]	GI50 [13]	GI50 [14]	GI50 [15]
CCCCCCCCC/C=C1\CCC(CN(C)C)C1=O (configuration not stated)	9.51 µM (inactive)	2.08 µM (inactive)	1.69 µM (inactive)	1.58 µM (inactive)	2.25 µM (inactive)	1.69 µM (inactive)	2.43 µM (inactive)	0.721 µM (active)	1.97 µM (inactive)	2.62 µM (inactive)	1.94 µM (inactive)	2.48 µM (inactive)	2.13 µM (inactive)	17.2 µM (inactive)	
COC(=O)c1ccccc1NC(=O)C(=O)Cc1nc2c3c(ccc2nc1O)C(=O)c1ccccc1C3=O	4.48 µM (inactive)	13.9 µM (inactive)	24.3 µM (inactive)	5.56 µM (inactive)	10.9 µM (inactive)	16.3 µM (inactive)		3.75 µM (inactive)	6.38 µM (inactive)	10.3 µM (inactive)		35.1 µM (inactive)	15.8 µM (inactive)	10.1 µM (inactive)	15 µM (inactive)
O=C1c2ccccc2C(=O)c2[nH]c(Cc3ccccc3F)nc21	48.2 µM (inactive)	86.7 µM (inactive)	48.3 µM (inactive)	37.9 µM (inactive)	86.7 µM (inactive)	44.9 µM (inactive)	68.2 µM (inactive)	> 100 µM (inactive)	40.7 µM (inactive)	89.7 µM (inactive)	35.6 µM (inactive)		68.1 µM (inactive)		14.5 µM (inactive)
COc1ccc2ccccc2c1C1=NC(C)(C)CO1	> 100 µM (inactive)	> 100 µM (inactive)	> 100 µM (inactive)	> 100 µM (inactive)	> 100 µM (inactive)	> 100 µM (inactive)	> 100 µM (inactive)	> 100 µM (inactive)	> 100 µM (inactive)	> 100 µM (inactive)	> 100 µM (inactive)		98.9 µM (inactive)	> 100 µM (inactive)	> 100 µM (inactive)
Cc1ccc(-c2nc3ccccc3c(=O)n2NC2OC(CO)C(O)C(O)C2O)cc1 (configuration not stated)	> 100 µM (inactive)	> 100 µM (inactive)	> 100 µM (inactive)	> 100 µM (inactive)	39.6 µM (inactive)	> 100 µM (inactive)		> 100 µM (inactive)	> 100 µM (inactive)	> 100 µM (inactive)	> 100 µM (inactive)	> 100 µM (inactive)	> 100 µM (inactive)	> 100 µM (inactive)	> 100 µM (inactive)
COC(=O)C1CCc2c(OC)ccc(OC)c2C1=O (configuration not stated)		> 100 µM (inactive)	> 100 µM (inactive)	> 100 µM (inactive)	> 100 µM (inactive)	> 100 µM (inactive)		> 100 µM (inactive)		> 100 µM (inactive)	> 100 µM (inactive)	> 100 µM (inactive)	> 100 µM (inactive)	> 100 µM (inactive)	> 100 µM (inactive)
Nc1nc(=O)[nH]c2c1cnn2COCCO	0.281 µM (active)		> 100 µM (inactive)	> 100 µM (inactive)	> 100 µM (inactive)	> 100 µM (inactive)	> 100 µM (inactive)	> 100 µM (inactive)	> 100 µM (inactive)	> 100 µM (inactive)	> 100 µM (inactive)	> 100 µM (inactive)	> 100 µM (inactive)		
NC(CCC(=O)NC(CSSCCCCS(=O)O)C(=O)NCC(=O)O)C(=O)O (configuration not stated)		> 100 µM (inactive)	> 100 µM (inactive)	> 100 µM (inactive)	> 100 µM (inactive)	> 100 µM (inactive)		> 100 µM (inactive)	> 100 µM (inactive)	29.5 µM (inactive)		> 100 µM (inactive)		> 100 µM (inactive)	> 100 µM (inactive)
CC1=NN(C(=O)c2ccc(Cl)cc2)C(=O)/C1=C/c1ccccc1O		> 100 µM (inactive)	> 100 µM (inactive)	> 100 µM (inactive)	> 100 µM (inactive)	> 100 µM (inactive)		> 100 µM (inactive)	> 100 µM (inactive)	> 100 µM (inactive)	> 100 µM (inactive)	> 100 µM (inactive)	> 100 µM (inactive)	> 100 µM (inactive)	> 100 µM (inactive)
CC(C)C(NC(=O)OC(C)(C)C)C(=O)N(C)C(Cc1ccccc1)C(=O)N(C)C(C(=O)N(C)C(C(=O)O)C(C)C)C(C)C (configuration not stated) (Boc-V[NMeF][NMeV][NMeV]-OH; configuration not given here)	> 100 µM (inactive)	> 100 µM (inactive)	> 100 µM (inactive)	> 100 µM (inactive)		> 100 µM (inactive)	> 100 µM (inactive)	> 100 µM (inactive)	> 100 µM (inactive)	> 100 µM (inactive)	> 100 µM (inactive)				> 100 µM (inactive)
